# Data published in patent publication US20100272791A1, “COMPOSITION HAVING EFFECT ON TREATMENT AND PREVENTION OF DRY EYE SYNDROME” (MD BIOALPHA CO., LTD., priority 2005, published 2010).
# What was measured:
# dry eye patients = assay: Clinical test, oral uridine in dry eye patients (double blind, placebo); type: in vivo, human; settings: oral uridine 100 mg/day, three times a day for 3 months, versus placebo
# Experimental: At initial point of treatment and two weeks, one month, two months and three months after initiation of treatment, changes in corneal symptoms and conditions and the presence/absence of adverse side effects were objectively evaluated by slit-lamp microscopic examination, measurement of intraocular pressure, ophthalmoscopic examination, Schirmer test, impression cytology and analysis photography of anterior eye segment. In addition, subjective questionnaires of individual patients were prepared, and changes in subjective symptoms of patients and the presence/absence of adverse side effects were observed.
# ocular epithelial cells [1] = assay: Production of glycosaminoglycan in corneal epithelial cells (Biocolor assay kit); type: cell-based; settings: uridine 0 μM to 50 μM, 48 hours, concentration-dependent, FIG. 5
# Experimental: Ocular epithelial cells were stimulated for 48 hours by treatment with uridine (0 μM to 50 μM). The cell culture was collected, and an amount of glycosaminoglycan was measured at 550 nm using a Biocolor assay kit.
# corneal keratocytes [2] = assay: Production of nitric oxide (NO) in H2O2-stimulated corneal keratocytes (Griess reagent); type: cell-based; settings: 100 μM H2O2, then uridine 0 μM to 100 μM, 48 hours, effect up to 50 μM, concentration-dependent, FIG. 3
# ocular epithelial cells [3] = assay: Production of nitric oxide (NO) in H2O2-stimulated corneal epithelial cells (Griess reagent); type: cell-based; settings: 100 μM H2O2, then uridine 0 μM to 100 μM, 48 hours, concentration-dependent, FIG. 6
# dry eye-induced rabbits = assay: Concanavalin A-induced dry eye in rabbits, eye drops, impression cytology; type: in vivo, rabbit; settings: uridine eye drops in phosphate-buffered saline (1% and 5%), compared to 0.1% hyaluronic acid positive control and PBS control; FIG. 7
# Experimental: Dry eye syndrome was induced by causing ocular inflammation via injection of concanavalin A into the lacrimal gland of rabbits (Journal of Ocular Pharmacology & Therapeutics 21(2), 139-148, 2005). Uridine was dissolved to a concentration of […] in a phosphate-buffered saline solution, respectively, and the resulting solutions were used as eye drops. A commercially available 0.1% hyaluronic acid preparation was used as a positive control group, and a phosphate-buffered saline solution was used as a control group. 1% and 5% uridine preparations, the hyaluronic acid preparation and the phosphate-buffered saline solution were respectively dropped into eyes of the dry eye-induced rabbits, and the impression cytology of ocular cells was performed to confirm alleviation of dry eye syndrome.
# corneal keratocytes [4] = assay: Production of glycosaminoglycan in corneal keratocytes (Biocolor assay kit); type: cell-based; settings: uridine 0 μM to 50 μM, 48 hours, effect from 1 μM, concentration-dependent, FIG. 2
# Experimental: Corneal keratocytes were stimulated for 48 hours by treatment of the cells with uridine (0 μM to 50 μM). The cell culture was collected, and an amount of glycosaminoglycan was measured at 550 nm using a Biocolor assay kit.
# corneal keratocytes [5] = assay: Production of hyaluronic acid in corneal keratocytes (b-HABP plate assay); type: cell-based; settings: uridine 0 μM to 10 μM, 48 hours; effect up to 5 μM, concentration-dependent; FIG. 1
# Experimental: Corneal keratocytes were stimulated for 48 hours by treatment of the cells with uridine (0 μM to 10 μM). 100 μl of the cell culture was collected, and reacted with 100 μl of biotinylated hyaluronic acid binding protein (b-HABP, 50 ng/mL) at room temperature for 1 hour. On the day prior to experiments, 20 μg/mL of HA and a solution of 20 mM Na2CO3 were added to a 96-well plate which was then stored in a refrigerator for 24 hours, and washed with a standard assay buffer (SAB) three times. 1% BSA was added to the 96-well plate which was then reacted at room temperature for 90 min and washed with SAB three times to thereby prepare an HA-coated plate. The above-prepared cell culture was added to the HA-coated plate, and reacted with stirring at room temperature for 1 hour. Thereafter, the cell culture thus reacted was washed with SAB three times, followed by addition of Extra-avidin alkaline phosphatase (1:80000), reaction at room temperature for 30 min, and washing with SAB three times. 1 mg/mL of a disodium p-nitrophenyl solution in 100 mM NaCl and 5 mM MgCl was added to the cell culture which was then reacted for 20 to 60 min. Thereafter, 3N NaOH was added to terminate the reaction, and an amount of hyaluronic acid was measured at 405 nm.
# corneal keratocytes [6] = assay: Proliferation of corneal keratocytes (CCK-8); type: cell-based; settings: uridine 0 μM to 10 μM, 48 hours; effect from 0.1 μM or higher; FIG. 4
# Experimental: Corneal keratocytes were incubated in a 96-well plate and stimulated with uridine (0 μM to 10 μM) for 48 hours. Cell count was carried out at 450 nm using a Cell counting kit-8 (CCK-8).
smiles,measurement,setting,value
O=c1ccn([C@@H]2O[C@H](CO)[C@@H](O)[C@H]2O)c(=O)[nH]1 [uridine],tear-secretion test (Schirmer test),dry eye patients; FIG. 8,significant difference
same,corneal staining,dry eye patients; FIG. 9,significant difference
same,production of glycosaminoglycan,ocular epithelial cells [1],promoted production of glycosaminoglycan
same,production of nitric oxide (NO),corneal keratocytes [2],inhibited production of nitric oxide (NO)
same,production of nitric oxide (NO),ocular epithelial cells [3],inhibited production of nitric oxide (NO)
same,restoration of epithelial cells in the impression cytology of ocular cells,dry eye-induced rabbits,significant restoration of epithelial cells
same,production of glycosaminoglycan,corneal keratocytes [4],promoted production of glycosaminoglycan
same,production of hyaluronic acid,corneal keratocytes [5],promoted production of hyaluronic acid
same,proliferation of cells,corneal keratocytes [6],promoted proliferation of cells
